Assay results published in ChEMBL document CHEMBL1131254, “Molecular modeling studies of the DNA-topoisomerase I ternary cleavable complex with camptothecin” (J Med Chem, 1998).
The source made the active and inactive calls. The rule behind the calls is not given here.

biological target: T1, DNA topoisomerase 1 (Homo sapiens) (UniProt P11387); assay: The compound was tested for top1-induced DNA cleavage activity; - indicates inactive; format: functional
T1 sequence (whole entry): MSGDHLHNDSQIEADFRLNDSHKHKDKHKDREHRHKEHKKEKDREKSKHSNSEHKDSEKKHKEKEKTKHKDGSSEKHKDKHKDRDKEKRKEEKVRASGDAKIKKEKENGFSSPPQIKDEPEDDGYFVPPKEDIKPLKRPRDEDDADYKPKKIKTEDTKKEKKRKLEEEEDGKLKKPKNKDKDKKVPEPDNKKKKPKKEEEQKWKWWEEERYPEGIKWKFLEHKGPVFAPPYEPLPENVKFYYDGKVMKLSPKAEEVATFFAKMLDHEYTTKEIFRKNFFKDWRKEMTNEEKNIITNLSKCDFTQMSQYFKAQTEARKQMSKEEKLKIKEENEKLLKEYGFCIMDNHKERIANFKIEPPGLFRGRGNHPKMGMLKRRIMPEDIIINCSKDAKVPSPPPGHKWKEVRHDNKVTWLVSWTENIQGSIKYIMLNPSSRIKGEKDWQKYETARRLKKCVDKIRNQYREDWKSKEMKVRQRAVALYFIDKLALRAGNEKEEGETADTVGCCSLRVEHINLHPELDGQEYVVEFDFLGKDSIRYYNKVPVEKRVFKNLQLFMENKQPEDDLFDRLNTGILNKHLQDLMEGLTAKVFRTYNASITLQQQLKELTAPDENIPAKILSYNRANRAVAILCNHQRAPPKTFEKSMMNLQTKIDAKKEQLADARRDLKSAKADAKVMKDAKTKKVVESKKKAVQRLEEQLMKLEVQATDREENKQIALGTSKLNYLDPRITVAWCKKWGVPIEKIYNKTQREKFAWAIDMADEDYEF

Row | SMILES | inhibition
1 | CC[C@@]1(O)C(=O)OCc2c1cc1n(c2=O)Cc2cc3cc(OC)c(OC)cc3nc2-1 (stereo in doubt; form 1) | inactive
2 | CC[C@@]1(O)C(=O)OCc2c1cc1n(c2=O)Cc2cc3cc(OC)c(OC)cc3nc2-1 (stereo in doubt; form 2) | inactive
3 | CC[C@@]1(O)C(=O)OCc2c1ccc1c2Cc2cc3ccccc3nc2-1 | inactive
4 | CC[C@H]1C(=O)OCc2c1cc1n(c2=O)Cc2cc3ccccc3nc2-1 | inactive
5 | CC[C@]1(O)C(=O)OCc2c1cc1n(c2=O)Cc2cc3ccccc3nc2-1 | inactive
6 | CC[C@@]1(O)C(=O)OCc2cc3c(cc21)-c1nc2ccccc2cc1C3 | inactive
7 | CC[C@@]1(O)C(=O)OCc2c1cc1n(c2=O)Cc2cc3cc(OC)c(OC)cc3nc2-1 (stereo in doubt; form 3) | inactive

biological target: T1, DNA topoisomerase 1 (Homo sapiens); assay: The compound was tested for top1-induced DNA cleavage activity; ++ indicates more potent than CPT; format: functional

Row | SMILES | inhibition
8 | CC[C@@]1(O)C(=O)OCc2c1cc1n(c2=O)Cc2cc3cc(N)c(O)cc3nc2-1 | more potent than CPT
9 | CC[C@@]1(O)C(=O)OCc2c1cc1n(c2=O)Cc2c-1nc1cc3c(cc1c2CN1CCN(C)CC1)OCO3 | more potent than CPT
10 | CC[C@@]1(O)C(=O)OCc2c1cc1n(c2=O)Cc2c-1nc1cc3c(cc1c2CN1CCN(C)CC1)OCCO3 | more potent than CPT

biological target: T1, DNA topoisomerase 1 (Homo sapiens); assay: The compound was tested for top1-induced DNA cleavage activity; + indicates comparable to CPT; format: functional

Row | SMILES | inhibition
11 | CC[C@@]1(O)C(=O)OCc2c1cc1n(c2=O)Cc2c-1nc1cnc(CN)cc1c2C | comparable to CPT
